≈ marks a conversion by molar mass, not a printed value.
What was measured:
Format in all cases: functional
Candida albicans [1] = assay: Antifungal activity against fluconalzole-resistant Candida albicans after 24 hrs
Candida parapsilosis [2] = assay: Antifungal activity against fluconalzole-resistant Candida parapsilosis after 24 hrs; conditions: Lodderomyces parapsilosis
Candida parapsilosis [3] = assay: Antifungal activity against fluconalzole-susceptible Candida parapsilosis after 24 hrs; conditions: Lodderomyces parapsilosis
Candida albicans [4] = assay: Antifungal activity against fluconalzole-susceptible Candida albicans after 24 hrs
Cryptococcus neoformans [5] = assay: Potency index, ratio of fluconazole MIC to test compound MIC for Cryptococcus neoformans infected in Caenorhabditis elegans
Cryptococcus neoformans [6] = assay: Antifungal activity against Cryptococcus neoformans infected in Caenorhabditis elegans
Candida tropicalis [7] = assay: Antifungal activity against Candida tropicalis after 24 hrs by microbroth dilution method
Trichophyton rubrum [8] = assay: Antifungal activity against Trichophyton rubrum; conditions: Trichophyton rubrum; read-out: MIC
Cryptococcus neoformans [9] = assay: Antifungal activity against Cryptococcus neoformans; conditions: Cryptococcus neoformans; read-out: MIC
Kluyveromyces marxianus = assay: Antifungal activity against Candida kefyr; conditions: Kluyveromyces marxianus; read-out: MIC
Candida tropicalis [10] = assay: Antifungal activity against Candida tropicalis; conditions: Candida tropicalis; read-out: MIC
Aspergillus fumigatus [11] = assay: Antifungal activity against Aspergillus fumigatus after 24 hrs by microbroth dilution method
Nannizzia gypsea [12] = assay: Antifungal activity against Microsporum gypseum after 24 hrs
Trichophyton rubrum [13] = assay: Antifungal activity against Trichophyton rubrum after 24 hrs
Candida albicans [14] = assay: Antifungal activity against Candida albicans infected in Caenorhabditis elegans assessed as survival at 32 ug/ml relative to control
Aspergillus fumigatus [15] = assay: Antifungal activity against Aspergillus fumigatus; conditions: Aspergillus fumigatus
Candida tropicalis [16] = assay: Antifungal activity against Candida tropicalis after 24 hrs by NCCLS protocol based method
Cryptococcus neoformans [17] = assay: Antifungal activity against Cryptococcus neoformans after 24 hrs
Fonsecaea compacta = assay: Antifungal activity against Fonsecaea compacta after 24 hrs by microbroth dilution method
Candida albicans [18] = assay: Antifungal activity against Candida albicans ATCC SC5314 after 24 hrs; conditions: ATCC SC5314, 24 h
Trichophyton rubrum [19] = assay: Antifungal activity against Trichophyton rubrum after 24 hrs by microbroth dilution method
Nannizzia gypsea [20] = assay: Antifungal activity against Microsporum gypseum after 7 days by NCCLS protocol based method; conditions: 168 h
Candida albicans [21] = assay: Antifungal activity against Candida albicans; conditions: Candida albicans; read-out: MIC
Pichia kudriavzevii = assay: Antifungal activity against Candida krusei after 24 hrs
Aspergillus fumigatus [22] = assay: Antifungal activity against Aspergillus fumigatus after 24 hrs
Trichophyton rubrum [23] = assay: Antifungal activity against Trichophyton rubrum after 7 days by NCCLS protocol based method; conditions: 168 h
Microsporum canis = assay: Antifungal activity against Microsporum canis after 24 hrs by microbroth dilution method
Candida albicans [24] = assay: Antifungal activity against Candida albicans after 24 hrs by NCCLS protocol based method
Candida albicans [25] = assay: Antifungal activity against Candida albicans Y0109 after 24 hrs; conditions: Y0109, 24 h
Candida parapsilosis [26] = assay: Antifungal activity against Candida parapsilosis; conditions: Lodderomyces parapsilosis; read-out: MIC
Candida parapsilosis [27] = assay: Antifungal activity against Candida parapsilosis after 24 hrs; conditions: Lodderomyces parapsilosis
Cryptococcus neoformans [28] = assay: Antifungal activity against Cryptococcus neoformans after 72 hrs by NCCLS protocol based method

OC(Cn1cncn1)(Cn1cnc(SCc2cccc(Cl)c2)n1)c1ccc(F)cc1F (centres undefined)
MIC (Candida albicans [1]): 0.125 to 16 µg/mL (≈ 0.27 to 34.6 µM) | MIC (Candida parapsilosis [2]): 0.125 to 16 µg/mL (≈ 0.27 to 34.6 µM) | MIC (Candida parapsilosis [3]): 0.063 to 1 µg/mL (≈ 0.136 to 2.16 µM) | MIC (Candida albicans [4]): 0.063 to 1 µg/mL (≈ 0.136 to 2.16 µM)

OC(Cc1cn(C2CCCC2)nn1)(Cn1cncn1)c1ccc(F)cc1F (centres undefined)
Ratio (Cryptococcus neoformans [5]): 8 | MIC (Cryptococcus neoformans [6]): 0.25 µg/mL (≈ 0.668 µM)

OC(Cn1cncn1)(Cn1cncn1)c1ccc(F)cc1F [FLUCONAZOLE]
MIC80 (Candida tropicalis [7]): ≥ 0.5 µg/mL | MIC (Trichophyton rubrum [8]): 0.125 to 8 µg/mL (≈ 0.408 to 26.1 µM) | MIC (Cryptococcus neoformans [9]): 1 µg/mL (≈ 3.27 µM) | MIC (Kluyveromyces marxianus): 0.125 to 8 µg/mL (≈ 0.408 to 26.1 µM) | MIC (Candida tropicalis [10]): 0.125 to 8 µg/mL (≈ 0.408 to 26.1 µM) | MIC80 (Aspergillus fumigatus [11]): ≥ 0.5 µg/mL | MIC (Nannizzia gypsea [12]): ≥ 64 µg/mL | MIC (Trichophyton rubrum [13]): ≥ 64 µg/mL | survival at 32 µg/mL (Candida albicans [14]): 60% | MIC80 (Aspergillus fumigatus [15]): > 200 µM | MIC (Candida tropicalis [16]): 0.5 µg/mL (≈ 1.63 µM) | MIC (Cryptococcus neoformans [17]): ≥ 64 µg/mL | MIC80 (Fonsecaea compacta): ≥ 0.5 µg/mL | MIC (Candida albicans [18]): ≥ 64 µg/mL | MIC (Candida parapsilosis [3]): 0.5 to 4 µg/mL (≈ 1.63 to 13.1 µM) | MIC80 (Trichophyton rubrum [19]): ≥ 0.5 µg/mL | MIC (Nannizzia gypsea [20]): 0.5 µg/mL (≈ 1.63 µM) | MIC (Candida albicans [21]): 0.5 µg/mL (≈ 1.63 µM) | MIC (Pichia kudriavzevii): ≥ 64 µg/mL | MIC (Aspergillus fumigatus [22]): ≥ 64 µg/mL | MIC (Trichophyton rubrum [23]): 0.5 µg/mL (≈ 1.63 µM) | MIC80 (Microsporum canis): ≥ 0.5 µg/mL | MIC (Candida albicans [24]): 0.5 µg/mL (≈ 1.63 µM) | MIC (Candida albicans [25]): ≥ 64 µg/mL | MIC (Candida parapsilosis [26]): 1 µg/mL (≈ 3.27 µM) | MIC (Candida parapsilosis [27]): ≥ 64 µg/mL | MIC (Candida albicans [4]): 0.5 to 4 µg/mL (≈ 1.63 to 13.1 µM) | MIC (Cryptococcus neoformans [28]): 0.5 µg/mL (≈ 1.63 µM)

Reference: ChEMBL document CHEMBL4396865, “Current advances of triazole alcohols derived from fluconazole: Design, in vitro and in silico studies” (2019)
